SMILES strings stand for the structures.

Chain of human NaV 1.8 (Q9Y5Y9 whole entry, looked up, the tested form may be a part): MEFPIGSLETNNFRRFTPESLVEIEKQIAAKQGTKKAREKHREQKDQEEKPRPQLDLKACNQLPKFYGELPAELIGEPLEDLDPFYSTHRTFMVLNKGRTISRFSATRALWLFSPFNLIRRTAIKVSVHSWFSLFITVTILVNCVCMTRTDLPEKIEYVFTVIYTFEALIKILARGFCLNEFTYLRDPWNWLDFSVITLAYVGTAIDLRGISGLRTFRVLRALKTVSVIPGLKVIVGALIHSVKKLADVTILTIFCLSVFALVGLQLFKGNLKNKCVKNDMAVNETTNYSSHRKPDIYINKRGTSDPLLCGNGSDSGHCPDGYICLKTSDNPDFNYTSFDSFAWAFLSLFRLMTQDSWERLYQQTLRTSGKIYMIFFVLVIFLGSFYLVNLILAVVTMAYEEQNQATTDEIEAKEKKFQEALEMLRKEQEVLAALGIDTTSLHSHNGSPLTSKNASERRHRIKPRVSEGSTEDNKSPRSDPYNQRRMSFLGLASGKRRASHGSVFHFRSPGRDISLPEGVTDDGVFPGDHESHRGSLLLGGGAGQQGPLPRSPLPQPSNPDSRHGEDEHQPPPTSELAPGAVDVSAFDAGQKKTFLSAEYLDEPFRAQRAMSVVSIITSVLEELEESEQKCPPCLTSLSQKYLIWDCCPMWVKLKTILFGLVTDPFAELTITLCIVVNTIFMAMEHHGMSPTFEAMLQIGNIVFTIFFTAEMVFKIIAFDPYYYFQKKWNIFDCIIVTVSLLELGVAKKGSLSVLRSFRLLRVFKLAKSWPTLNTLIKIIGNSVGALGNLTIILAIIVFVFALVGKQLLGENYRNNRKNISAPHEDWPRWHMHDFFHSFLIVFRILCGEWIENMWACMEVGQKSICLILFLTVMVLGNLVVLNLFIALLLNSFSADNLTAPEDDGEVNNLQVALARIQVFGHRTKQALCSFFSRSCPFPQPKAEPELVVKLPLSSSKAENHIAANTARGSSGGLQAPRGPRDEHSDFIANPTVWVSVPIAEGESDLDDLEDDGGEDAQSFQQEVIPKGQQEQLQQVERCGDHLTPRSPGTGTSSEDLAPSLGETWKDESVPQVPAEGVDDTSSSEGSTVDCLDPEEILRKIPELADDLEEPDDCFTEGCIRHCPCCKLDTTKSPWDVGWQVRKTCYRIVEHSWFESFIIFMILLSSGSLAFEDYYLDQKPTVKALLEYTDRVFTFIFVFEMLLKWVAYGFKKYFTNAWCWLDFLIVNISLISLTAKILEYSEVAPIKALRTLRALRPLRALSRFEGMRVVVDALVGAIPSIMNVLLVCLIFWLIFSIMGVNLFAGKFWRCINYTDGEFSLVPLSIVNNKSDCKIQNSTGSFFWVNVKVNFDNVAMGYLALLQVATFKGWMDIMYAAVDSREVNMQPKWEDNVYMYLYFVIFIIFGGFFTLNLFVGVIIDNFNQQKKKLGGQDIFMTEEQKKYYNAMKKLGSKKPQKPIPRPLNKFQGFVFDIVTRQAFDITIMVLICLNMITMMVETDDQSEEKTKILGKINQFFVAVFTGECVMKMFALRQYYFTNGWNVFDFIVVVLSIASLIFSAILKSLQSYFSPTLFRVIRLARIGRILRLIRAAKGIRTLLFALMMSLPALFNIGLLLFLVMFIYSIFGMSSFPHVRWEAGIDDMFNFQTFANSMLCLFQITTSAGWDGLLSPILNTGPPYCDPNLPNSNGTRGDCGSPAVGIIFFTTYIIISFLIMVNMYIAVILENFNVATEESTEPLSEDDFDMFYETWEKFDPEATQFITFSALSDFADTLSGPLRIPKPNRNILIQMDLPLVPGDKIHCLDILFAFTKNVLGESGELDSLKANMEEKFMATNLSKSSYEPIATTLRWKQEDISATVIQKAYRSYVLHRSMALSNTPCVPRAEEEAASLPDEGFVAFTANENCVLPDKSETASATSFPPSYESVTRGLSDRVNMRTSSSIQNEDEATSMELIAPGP

For one assay, the target named is human NaV 1.8 (Homo sapiens, UniProt Q9Y5Y9). Description: E-VIPR assay for detecting and measuring NaV inhibition properties. Format: cell-based. Particulars: E-VIPR assay conducted in the absence of human serum (compounds marked *); HEK cells expressing truncated human NaV 1.8; read-out: IC50. In short, it runs like this:
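HEK cells with truncated human NaV1.8 plus KIR2.1 BacMam, hexyl dye loaded 20 min, compound 30 min at room temperature, 11-point 3-fold series […], 0.625% DMSO, with or without human serum. E-VIPR biphasic stimulation at 10 Hz for 10 s; membrane-potential response read as normalized coumarin/oxonol ratio.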
By IC50 is commonly meant the concentration that inhibits the measured activity by half. On to `COc1c(Oc2cnc(C(F)(F)F)c(C)c2C(=O)Nc2ccc(C(N)=O)nc2)ccc(F)c1F` [Compound 358, N-(6-carbamoyl-3-pyridyl)-5-(3,4-difluoro-2-methoxy-phenoxy)-3-methyl-2-(trifluoromethyl)pyridine-4-carboxamide], for which the half-maximal inhibitory concentration (IC50) amounted to 75 nM.
On the same count and under the same terms, the result for `COc1cc(OC(F)(F)F)ccc1Oc1cc(F)cc(F)c1C(=O)Nc1ccnc(C(N)=O)c1` [Compound 360, 4-[[2,4-difluoro-6-[2-methoxy-4-(trifluoromethoxy)phenoxy]benzoyl]amino]pyridine-2-carboxamide] reads 14 nM.
The same measure, in the same setting: under `Cc1c(Oc2ccc(C(F)(F)F)cc2C(=O)Nc2ccnc(C(N)=O)c2)ccc(F)c1F` [Compound 361, 4-[[2-(3,4-difluoro-2-methyl-phenoxy)-5-(trifluoromethyl)benzoyl]amino]pyridine-2-carboxamide] stands 44 nM; under `COc1cc(OC(F)(F)F)ccc1Oc1cc(OC)c(C)c(F)c1C(=O)Nc1ccnc(C(N)=O)c1` [Compound 362, 4-[[2-fluoro-4-methoxy-6-[2-methoxy-4-(trifluoromethoxy)phenoxy]-3-methyl-benzoyl]amino]pyridine-2-carboxamide], 2 nM; under `COc1cc(OC(F)(F)F)ccc1Oc1cc(OC)c(C)c(Cl)c1C(=O)Nc1ccnc(C(N)=O)c1` [Compound 363, 4-[[2-chloro-4-methoxy-6-[2-methoxy-4-(trifluoromethoxy)phenoxy]-3-methyl-benzoyl]amino]pyridine-2-carboxamide], 3 nM.
Same read-out and setting: under `Cc1nc(C(C)(C)C)cc(Oc2ccc(F)cc2Cl)c1C(=O)Nc1ccnc(C(N)=O)c1` [Compound 364, 6-tert-butyl-N-(2-carbamoyl-4-pyridyl)-4-(2-chloro-4-fluoro-phenoxy)-2-methyl-pyridine-3-carboxamide] stands 46 nM.
`COc1cc(Oc2ccc(F)cc2Cl)c(C(=O)Nc2cnc(C(N)=O)nc2)c(F)c1C(F)(F)F` [Compound 366, 5-[[6-(2-chloro-4-fluoro-phenoxy)-2-fluoro-4-methoxy-3-(trifluoromethyl)benzoyl]amino]pyrimidine-2-carboxamide]: the IC50 turned out to be 13 nM.
For `COc1c(C(F)(F)F)cc(Oc2ccc(F)cc2Cl)c(C(=O)Nc2cc(C(N)=O)ncc2C)c1F` [Compound 382, 4-(6-(2-Chloro-4-Fluorophenoxy)-2-Fluoro-3-Methoxy-4-(Trifluoromethyl)Benzamido)-5-Methylpicolinamide], the IC50 was 5 nM.

The assay is the same for the next values; noted with them: E-VIPR assay conducted in the presence of human serum; HEK cells expressing truncated human NaV 1.8; read-out: IC50.
For the compound `COc1cc(Oc2ccc(F)cc2Cl)c(C(=O)Nc2ccnc(C(N)=O)c2)c(F)c1C(F)(F)F` [Compound 365, 4-[[6-(2-chloro-4-fluoro-phenoxy)-2-fluoro-4-methoxy-3-(trifluoromethyl)benzoyl]amino]pyridine-2-carboxamide], the IC50 was 50 nM.
On the same count and under the same terms, under `COc1cc(Oc2ccc(F)cc2Cl)c(C(=O)Nc2ccc(C(N)=O)nc2)c(F)c1C(F)(F)F` [Compound 367, 5-[[6-(2-chloro-4-fluoro-phenoxy)-2-fluoro-4-methoxy-3-(trifluoromethyl)benzoyl]amino]pyridine-2-carboxamide] stands 330 nM; under `COc1cc(Oc2ccc(OC(F)(F)F)cc2Cl)c(C(=O)Nc2ccnc(C(N)=O)c2)c(F)c1C(F)(F)F` [Compound 368, 4-[[6-[2-Chloro-4-(Trifluoromethoxy)Phenoxy]-2-Fluoro-4-Methoxy-3-(Trifluoromethyl)Benzoyl]Amino]Pyridine-2-Carboxamide], 5 nM.
On the same count and under the same terms, under `COc1cc(Oc2ccc(OC(F)(F)F)cc2Cl)c(C(=O)Nc2cnc(C(N)=O)nc2)c(F)c1C(F)(F)F` [Compound 369, 5-[[6-[2-chloro-4-(trifluoromethoxy)phenoxy]-2-fluoro-4-methoxy-3-(trifluoromethyl)benzoyl]amino]pyrimidine-2-carboxamide] stands 9 nM; under `COc1cc(Oc2ccc(OC(F)(F)F)cc2Cl)c(C(=O)Nc2ccc(C(N)=O)nc2)c(F)c1C(F)(F)F` [Compound 370, 5-[[6-[2-chloro-4-(trifluoromethoxy)phenoxy]-2-fluoro-4-methoxy-3-(trifluoromethyl)benzoyl]amino]pyridine-2-carboxamide], 43 nM; under `COc1cc(Oc2ccc(F)c(F)c2OC)c(C(=O)Nc2ccnc(C(N)=O)c2)c(F)c1C` [Compound 372, 4-[[6-(3,4-difluoro-2-methoxy-phenoxy)-2-fluoro-4-methoxy-3-methyl-benzoyl]amino]pyridine-2-carboxamide], 12 nM.
Still for that read-out and setting: the result for `COc1c(Oc2cc(Cl)c(C)c(F)c2C(=O)Nc2ccnc(C(N)=O)c2)ccc(F)c1F` [Compound 373, 4-[[4-chloro-6-(3,4-difluoro-2-methoxy-phenoxy)-2-fluoro-3-methyl-benzoyl]amino]pyridine-2-carboxamide] reads 6 nM.
Regarding `COc1c(Oc2ccc(OC3CC3)c(F)c2C(=O)Nc2ccnc(C(N)=O)c2)ccc(F)c1F` [Compound 374, 4-[[3-(cyclopropoxy)-6-(3,4-difluoro-2-methoxy-phenoxy)-2-fluoro-benzoyl]amino]pyridine-2-carboxamide], the IC50 was found to be 34 nM.
Same read-out and setting: under `COc1c(Oc2cnc(C(F)(F)F)c(C)c2C(=O)Nc2ccnc(C(N)=O)c2)ccc(F)c1F` [Compound 375, N-(2-carbamoyl-4-pyridyl)-5-(3,4-difluoro-2-methoxy-phenoxy)-3-methyl-2-(trifluoromethyl)pyridine-4-carboxamide] stands 29 nM; under `COc1c(Oc2cc(C(F)(F)F)c(OC)c(F)c2C(=O)Nc2cc(C(N)=O)ncc2C)ccc(F)c1F` [Compound 376, 4-[[6-(3,4-difluoro-2-methoxy-phenoxy)-2-fluoro-3-methoxy-4-(trifluoromethyl)benzoyl]amino]-5-methyl-pyridine-2-carboxamide], 9 nM.
The same measure, in the same setting: the result for `COc1c(Oc2cc(C(F)(F)F)c(OC)c(F)c2C(=O)Nc2ccc(C(N)=O)nc2)ccc(F)c1F` [Compound 377, 5-[[6-(3,4-difluoro-2-methoxy-phenoxy)-2-fluoro-3-methoxy-4-(trifluoromethyl)benzoyl]amino]pyridine-2-carboxamide] reads 21 nM; that for `COc1cc(Oc2ccc(F)c(F)c2OC)c(C(=O)Nc2cnc(C(N)=O)nc2)c(F)c1C(F)(F)F` [Compound 380, 5-[[6-(3,4-difluoro-2-methoxy-phenoxy)-2-fluoro-4-methoxy-3-(trifluoromethyl)benzoyl]amino]pyrimidine-2-carboxamide], 26 nM; that for `COc1cc(Oc2ccc(F)c(F)c2OC)c(C(=O)Nc2ccc(C(N)=O)nc2)c(F)c1C(F)(F)F` [Compound 381, 5-[[6-(3,4-difluoro-2-methoxy-phenoxy)-2-fluoro-4-methoxy-3-(trifluoromethyl)benzoyl]amino]pyridine-2-carboxamide], 16 nM.
On to `COc1cc(OC(F)(F)F)ccc1Oc1ccc(C(F)(F)F)c(O)c1C(=O)Nc1ccnc(C(N)=O)c1` [Compound 383, 4-[[2-hydroxy-6-[2-methoxy-4-(trifluoromethoxy)phenoxy]-3-(trifluoromethyl)benzoyl]amino]pyridine-2-carboxamide], for which the IC50 is greater than 3000 nM.
Take `[2H]C([2H])([2H])Oc1cc(OC(F)(F)F)ccc1Oc1cc(C2=CCCCC2)cc(F)c1C(=O)Nc1ccnc(C(N)=O)c1` [Compound 1001, 4-[[4-(cyclohexen-1-yl)-2-fluoro-6-[2-(trideuteriomethoxy)-4-(trifluoromethoxy)phenoxy]benzoyl]amino]pyridine-2-carboxamide]: the IC50 was determined as 19 nM.
On the same count and under the same terms, under `[2H]C([2H])([2H])Oc1cc(OC(F)(F)F)ccc1Oc1cc(C2=COCCC2)cc(F)c1C(=O)Nc1ccnc(C(N)=O)c1` [Compound 1002, 4-[[4-(3,4-dihydro-2H-pyran-5-yl)-2-fluoro-6-[2-(trideuteriomethoxy)-4-(trifluoromethoxy)phenoxy]benzoyl]amino]pyridine-2-carboxamide] stands 30 nM.
On to `[2H]C([2H])([2H])Oc1cc(OC(F)(F)F)ccc1Oc1cc(C2=CCC(F)(F)CC2)cc(F)c1C(=O)Nc1ccnc(C(N)=O)c1` [Compound 1003, 4-[[4-(4,4-difluorocyclohexen-1-yl)-2-fluoro-6-[2-(trideuteriomethoxy)-4-(trifluoromethoxy)phenoxy]benzoyl]amino]pyridine-2-carboxamide], for which the IC50 was 26 nM.
Still for that read-out and setting: the result for `[2H]C([2H])([2H])Oc1cc(OC(F)(F)F)ccc1Oc1cc(C2=CCOC2)cc(F)c1C(=O)Nc1ccnc(C(N)=O)c1` [Compound 1004, 4-[[4-(2,5-dihydrofuran-3-yl)-2-fluoro-6-[2-(trideuteriomethoxy)-4-(trifluoromethoxy)phenoxy]benzoyl]amino]pyridine-2-carboxamide] reads 29 nM; that for `[2H]C([2H])([2H])Oc1cc(OC(F)(F)F)ccc1Oc1cc(C2=CCOCC2)cc(F)c1C(=O)Nc1ccnc(C(N)=O)c1` [Compound 1005, 4-[[4-(3,6-dihydro-2H-pyran-4-yl)-2-fluoro-6-[2-(trideuteriomethoxy)-4-(trifluoromethoxy)phenoxy]benzoyl]amino]pyridine-2-carboxamide], 120 nM.
Still for that read-out and setting: the result for `[2H]C([2H])([2H])Oc1cc(OC(F)(F)F)ccc1Oc1cc(-c2ccccc2C(N)=O)cc(F)c1C(=O)Nc1ccnc(C(N)=O)c1` [Compound 1006, 4-[[4-(2-carbamoylphenyl)-2-fluoro-6-[2-(trideuteriomethoxy)-4-(trifluoromethoxy)phenoxy]benzoyl]amino]pyridine-2-carboxamide] reads greater than 3000 nM; that for `[2H]C([2H])([2H])Oc1cc(OC(F)(F)F)ccc1Oc1cc(-c2ccc(OC)cc2)cc(F)c1C(=O)Nc1ccnc(C(N)=O)c1` [Compound 1007, 4-[[2-fluoro-4-(4-methoxyphenyl)-6-[2-(trideuteriomethoxy)-4-(trifluoromethoxy)phenoxy]benzoyl]amino]pyridine-2-carboxamide], 170 nM.

The values are drawn from US12441703B2, “Carboxamides as modulators of sodium channels” (VERTEX PHARMACEUTICALS INCORPORATED, priority 2019, dated 2025).
